# In patent publication US12522588B2, “Herbicidal compounds” (SYNGENTA CROP PROTECTION AG, priority 2020, dated 2026):
# Key:
# Type in all cases: in vivo
# Conditions in all cases: 250 g/ha
# [1] = tested on: Amaranthus retoflexus (AMARE); assay: Post-emergence test, glasshouse
# Method: (§1) Seeds of a variety of test species are sown in standard soil in pots Amaranthus retoflexus (AMARE), Abutilon theophrasti (ABUTH), Setaria faberi (SETFA), Echinochloa crus-galli (ECHCG), Ipomoea hederacea (IPOHE)). After cultivation for one day (pre-emergence) or after 8 days cultivation (post-emergence) under controlled conditions in a glasshouse (at 24/16° C., day/night; 14 hours light; 65% humidity), the plants are sprayed with an aqueous spray solution derived from the formulation of the technical active ingredient in acetone/water (50:50) solution containing 0.5% Tween 20 (polyoxyethelyene sorbitan monolaurate, CAS RN 9005-64-5). Compounds are applied at 250 g/ha unless otherwise stated. The test plants are then grown in a glasshouse under controlled conditions in a glasshouse (at 24/16° C., day/night; 14 hours light; 65% humidity) and watered twice daily. After 13 days for pre and post-emergence, the test is evaluated for the percentage damage caused to the plant. The biological activities are shown in the following table on a five-point scale (5=81-100%; 4=61-80%; 3=41-60%; 2=21-40%; 1=0-20%).
# Setaria faberi (SETFA) [2] = assay: Post-emergence test, glasshouse
# Method: as §1
# [3] = tested on: Abutilon theophrasti (ABUTH); assay: Post-emergence test, glasshouse
# Method: as §1
# [4] = tested on: Echinochloa crus-galli (ECHCG); assay: Post-emergence test, glasshouse
# Method: as §1
# [5] = tested on: Ipomoea hederacea (IPOHE); assay: Post-emergence test, glasshouse
# Method: as §1
# [6] = tested on: Amaranthus retoflexus (AMARE); assay: Pre-emergence test, glasshouse
# Method: as §1
# Setaria faberi (SETFA) [7] = assay: Pre-emergence test, glasshouse
# Method: as §1
# [8] = tested on: Abutilon theophrasti (ABUTH); assay: Pre-emergence test, glasshouse
# Method: as §1
# [9] = tested on: Echinochloa crus-galli (ECHCG); assay: Pre-emergence test, glasshouse
# Method: as §1
# [10] = tested on: Ipomoea hederacea (IPOHE); assay: Pre-emergence test, glasshouse
# Method: as §1
# [11] = evaluated after 13 days, Table B1
# [12] = evaluated after 13 days, Table B2
SMILES,"percentage damage caused to the plant, AMARE [1, 11]","percentage damage caused to the plant, SETFA (Setaria faberi (SETFA) [2]; [11])","percentage damage caused to the plant, ABUTH [3, 11]","percentage damage caused to the plant, ECHCG [4, 11]","percentage damage caused to the plant, IPOHE [5, 11]","percentage damage caused to the plant, AMARE [6, 12]","percentage damage caused to the plant, SETFA (Setaria faberi (SETFA) [7]; [12])","percentage damage caused to the plant, ABUTH [8, 12]","percentage damage caused to the plant, ECHCG [9, 12]","percentage damage caused to the plant, IPOHE [10, 12]","percentage damage caused to the plant, AMARE ([1]; comparative test)","percentage damage caused to the plant, SETFA (Setaria faberi (SETFA) [2]; comparative test)","percentage damage caused to the plant, ABUTH ([3]; comparative test)","percentage damage caused to the plant, ECHCG ([4]; comparative test)","percentage damage caused to the plant, IPOHE ([5]; comparative test)","percentage damage caused to the plant, AMARE ([6]; comparative test)","percentage damage caused to the plant, SETFA (Setaria faberi (SETFA) [7]; comparative test)","percentage damage caused to the plant, LABUTH ([8]; comparative test)","percentage damage caused to the plant, ECHCG ([9]; comparative test)","percentage damage caused to the plant, IPOHE ([10]; comparative test)"
Cc1ccc(-n2nc(C(F)(F)F)cc2Oc2ncc(Cl)cn2)nn1 [Compound 1.012],2 (2=21-40%),1 (1=0-20%),1 (1=0-20%),1 (1=0-20%),1 (1=0-20%),3 (3=41-60%),1 (1=0-20%),1 (1=0-20%),1 (1=0-20%),1 (1=0-20%),–,–,–,–,–,–,–,–,–,–
"Cc1cc(Oc2ncc(Cl)cn2)n(-c2ccc(Cl)cc2)n1 [Compound C2, reference compound]",–,–,–,–,–,–,–,–,–,–,3 (3=41-60%),2 (2=21-40%),1 (1=0-20%),2 (2=21-40%),1 (1=0-20%),1 (1=0-20%),1 (1=0-20%),1 (1=0-20%),1 (1=0-20%),1 (1=0-20%)
